We go through six compounds from patent US20120214775A1, “Pharmaceutical Salts of 3-O-(3',3'-Dimethylsuccinyl) Betulinic Acid” (priority 2004, published 2012).

What is called solubility (thermodynamic) is the concentration in solution at equilibrium with solid. A word on the solubility: it is the concentration that dissolves in the medium under given conditions. The term EC50 denotes the concentration giving half of the maximal effect.

Converted amounts (≈) assume the structure as drawn. “Also recorded” adds a separate entry of the source. Counter-ions that a name gives are not always drawn. Like-named read-outs stand apart in the source and are kept apart here.

Data set [1] can be described thus: physchem. The conditions noted are these: thermodynamic from solid, Equilibrium solubility.
In data set [2] the test system is HIV-1 replication in H9 lymphocyte cells. The conditions noted are these: cited from earlier work; for T.I.: acutely infected H9 lymphocytes; for therapeutic index (T.I.) / EC50: H9 lymphocyte cells.
Data set [3] is described as follows: Water solubility (summary statement). The data set is classed as physicochemical.
A short description of data set [4]: Intravenous administration of DSB in rats (reference for bioavailability). The data set is classed as in vivo. As to conditions: rat, plasma, dose 10.4 mg/kg, read-out: AUCINF after intravenous administration. On the procedure: Blood samples were collected by cardiac puncture (n=2 rats/formulation/time point) at the following times: 0.25, 0.5, 1, 2, 4, 6, 12, and 24 h. Bioavailabilities of the oral formulations were calculated as the ratio of the oral dose-adjusted AUCINF assuming proportionality of the dose adjustments to the dose adjusted AUCINF reported after intravenous administration (AUCINF=63.3 μg h/mL) from a study of DSB in rats.

Data set [5] can be described thus: Equilibrium solubility in selected solvents. The conditions noted are these: for solubility thermodynamic at 7 days: organic solvent or mixture, equilibration 7 days.
The nature of data set [6]: physchem. The conditions noted are these: 25 °C.
The conditions of data set [7]: 25° C.
In the next data set the test system is HIV-1 NL4-3. The data set is described as follows: In vivo anti-HIV efficacy in the SCID-hu Thy/Liv mouse model of HIV infection. As to conditions: for implant p24: untreated 440; for antiviral activity against NL4-3 (in words): twice-daily oral gavage at 100 and 150 mg/kg/day, SCID-hu Thy/Liv mice.
Setting [8] is: highest dosage level (150 mg/kg/day), twice-daily oral gavage.
The mark [9] stands for this setting: once-daily oral gavage at 100 mg/kg/day.

`C=C(C)[C@H]1CC[C@]2(C(=O)O)CC[C@@]3(C)[C@H](CC[C@H]4[C@@]5(C)CC[C@H](OC(=O)CC(C)(C)C(=O)O)C(C)(C)[C@H]5CC[C@]43C)[C@H]12` [DSB, 3-O-(3′,3′-dimethylsuccinyl) betulinic acid]: the thermodynamic solubility at 3 days in “physchem [1]” (saline or isotonic) turned out to be 1500 µg/mL (≈ 2560 µM); in “physchem [1]” (water), 35.1 µg/mL (≈ 60 µM). Also, the T.I. result in data set [2] is on record as “more than 970,000”. The solubility in data set [3] was approximately 100 µg/mL (≈ 171 µM). Also, the AUC(0-inf) in data set [4] came to 63300 ng·h/mL.

As to `C=C(C)[C@@H]1CC[C@]2(C(=O)O)CC[C@]3(C)[C@H](CC[C@@H]4[C@@]5(C)CC[C@H](OC(=O)CC(C)(C)C(=O)O)C(C)(C)[C@@H]5CC[C@]43C)[C@@H]12` [DSB-(NmG)2, di-(N-methyl-D-glucamine) salt of 3-O-(3′,3′-dimethylsuccinyl) betulinic acid], the Equilibrium solubility in data set [5] (Deionized Water, equilibration 3 days) is more than 18000 µg/mL. Further, the solubility (thermodynamic) at 3 days in data set [5] (aqueous buffer, thermodynamic from solid, Equilibrium solubility, 1% DMSO in HERG Buffer, equilibration 3 days) was 87.1 µg/mL; in data set [5] (aqueous buffer, thermodynamic from solid, Equilibrium solubility, HERG Buffer, equilibration 3 days), 17.8 µg/mL; in data set [5] (saline or isotonic, thermodynamic from solid, Equilibrium solubility, PSS (physiological salt solution), equilibration 3 days), 80.2 µg/mL; in data set [5] (saline or isotonic, thermodynamic from solid, Equilibrium solubility, PSS + 0.1% DMSO, equilibration 3 days), 108 µg/mL; in data set [5] (saline or isotonic, thermodynamic from solid, Equilibrium solubility, PSS + 1% DMSO, equilibration 3 days), 108 µg/mL; in data set [5] (water, thermodynamic from solid, Equilibrium solubility, Deionized Water, equilibration 3 days), more than 18000 µg/mL. In addition, the thermodynamic solubility at 7 days in data set [5] (thermodynamic from solid, Equilibrium solubility, Ethanol, solid may have precipitated on transfer) is 25000 µg/mL; in data set [5] (thermodynamic from solid, Equilibrium solubility, Methanol), 37000 µg/mL; in data set [5] (thermodynamic from solid, Equilibrium solubility, PEG 400, compound may have precipitated on removal from water bath), 5120 µg/mL; in data set [5] (thermodynamic from solid, Equilibrium solubility, Propylene glycol), more than 255000 µg/mL. The compound also returned a solubility (thermodynamic) at 4 days in data set [5] (water, thermodynamic from solid, Equilibrium solubility, Deionized Water, equilibration 4 days) of more than 7000 µg/mL. The solubility is 7540 µg/mL in the data set “physchem [6]” (pH 9.461, aqueous buffer) and 7460 µg/mL in the data set “physchem [6]” (pH 10.691, aqueous buffer). Further, the visual solubility result in data set [7] (basic and neutral conditions) was “visibly soluble”; in data set [7] (strongly acid solutions), “visually insoluble”. For the same compound, the “implant p24” value with HIV-1 NL4-3 (100 mg/kg/day, twice-daily oral gavage) is recorded as 69 pg p24 per 10^6 cells; in the data set on HIV-1 NL4-3 (setting [8]), 14 pg p24 per 10^6 cells. Moreover, in the data set on HIV-1 NL4-3 (setting [8]), the “HIV-1 RNA reduction versus untreated mice” value worked out at 97%. In the data set on HIV-1 NL4-3 (highest dosage level (150 mg/kg/day), untreated 530), the “MHC-I expression on CD4+CD8+ thymocytes” value was 250 mean fluorescence intensity. Also, the “p24 reduction versus untreated mice” value with HIV-1 NL4-3 (highest dosage level (150 mg/kg/day, started at 300), twice-daily oral gavage, 22 days, Thy/Liv implant) was 99%. The “antiviral activity against NL4-3 (in words)” value in the data set on HIV-1 NL4-3 was “potent, dose-dependent antiviral activity; also recorded: potent in vivo inhibitor of HIV-1 replication”; in the data set with HIV-1 NL4-3 (listed as DSG-(NmG)2) it was “potent in vivo inhibitor of HIV-1 replication”.

Take `Nc1ccn([C@@H]2CS[C@H](CO)O2)c(=O)n1` [Group 3TC, lamivudine, reference compound]: in the data set with HIV-1 NL4-3 (setting [9]), the “HIV-1 RNA reduction versus untreated mice” value is given as 96%, the “thymocyte viability (live thymocytes)” value was found to be 71% and the “implant p24” value amounted to 35 pg p24 per 10^6 cells. Besides, the “p24 reduction versus untreated mice” value in the data set on HIV-1 NL4-3 (once-daily oral gavage at 100 mg/kg/day (positive control)) was 97%.

`CC(C)C1CCC2(C(=O)O)CCC3(C)C(CCC4C5(C)CCC(OC(=O)CC(C)(C)C(=O)O)C(C)(C)C5CCC43C)C12` (stereo not shown) [dihydrobetulinic acid analog]: in data set [2], the T.I. entry is “more than 400,000”.

With `CC(C)[C@@H]1CC[C@]2(C(=O)O)CC[C@]3(C)C(CCC4[C@@]5(C)CC[C@H](O)C(C)(C)C5CC[C@]43C)C12` (stereo partly shown) [dihydrobetulinic acid], in data set [2], the “therapeutic index (T.I.)” value is given as 14. In addition, in data set [2] (unit inferred, read-out: EC50, anti-HIV activity), the EC50 was 0.9 µM.

`CC(=O)[C@@H]1CC[C@]2(C(=O)O)CC[C@]3(C)[C@H](CC[C@@H]4[C@@]5(C)CC[C@H](O)C(C)(C)[C@@H]5CC[C@]43C)[C@@H]12` [platanic acid]: in data set [2], the “therapeutic index (T.I.)” value is 14. Further, in data set [2] (read-out: EC50, inhibitory activity against HIV-1 replication), the EC50 is 6.5 µM.
